Experimental data from patent publication US7807691B2, “Substituted N-arylpyrrolidines as selective androgen receptor modulators” (Eli Lilly and Company, priority 2005, dated 2010).
Where two headings read alike, the source gives them in different places.

Assays:
[1] = biological target: T1, human AR (androgen receptor) (Homo sapiens, UniProt P10275); assay: Steroid hormone nuclear receptor binding assay (AR binding)
T1 construct: expressed in transfected cells; host or cells: 293 cells (293-AR lysate)
T1 sequence (P10275 1-920): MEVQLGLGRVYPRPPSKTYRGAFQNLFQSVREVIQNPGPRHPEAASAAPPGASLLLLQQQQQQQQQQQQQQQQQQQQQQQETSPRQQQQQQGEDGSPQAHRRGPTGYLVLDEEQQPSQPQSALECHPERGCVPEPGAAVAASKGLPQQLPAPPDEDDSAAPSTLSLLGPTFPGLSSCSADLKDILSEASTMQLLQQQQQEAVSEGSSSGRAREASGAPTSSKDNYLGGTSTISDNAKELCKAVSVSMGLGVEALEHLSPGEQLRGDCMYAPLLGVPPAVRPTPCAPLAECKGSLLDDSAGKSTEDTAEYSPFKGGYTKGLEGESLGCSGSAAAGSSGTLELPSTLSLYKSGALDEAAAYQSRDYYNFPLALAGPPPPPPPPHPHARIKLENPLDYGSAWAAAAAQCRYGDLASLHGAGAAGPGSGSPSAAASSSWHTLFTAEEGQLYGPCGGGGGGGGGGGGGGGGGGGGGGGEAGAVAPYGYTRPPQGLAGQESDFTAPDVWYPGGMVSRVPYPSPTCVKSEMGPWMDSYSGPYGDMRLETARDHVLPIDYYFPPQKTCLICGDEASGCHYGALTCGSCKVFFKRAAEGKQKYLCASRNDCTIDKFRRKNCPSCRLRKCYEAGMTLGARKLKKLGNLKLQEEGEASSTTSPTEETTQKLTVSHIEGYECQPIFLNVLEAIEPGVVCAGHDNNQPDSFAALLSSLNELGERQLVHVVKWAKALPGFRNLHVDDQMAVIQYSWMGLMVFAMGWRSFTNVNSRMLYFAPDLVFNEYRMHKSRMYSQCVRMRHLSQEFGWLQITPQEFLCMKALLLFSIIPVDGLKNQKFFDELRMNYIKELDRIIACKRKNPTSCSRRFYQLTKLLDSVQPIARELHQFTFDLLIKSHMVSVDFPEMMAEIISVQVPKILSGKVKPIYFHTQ
Method: Cell lysates from 293 cells overexpressing human GR (glucocorticoid receptor), AR (androgen receptor), MR (mineralocorticoid receptor) or PR (progesterone receptor) are used for competition binding assays to determine Ki values for test compounds. Briefly, competition binding assays are run in a buffer containing 20 mM Hepes, pH 7.6, 0.2 mM EDTA, 75 mM NaCl, 1.5 mM MgCl2, 20% glycerol, 20 mM sodium molybdate, 0.2 mM DTT, 20 ug/ml aprotinin and 20 ug/ml leupeptin, using either 0.3 nM ^3H-dexamethasone for GR binding, 0.36 nM ^3H-methyltrienolone for AR binding, 0.25 nM ^3H-aldosterone for MR binding, or 0.29 nM ^3H-methyltrienolone for PR binding, and either 20 ug 293-GR lysate, 22 ug 293-AR lysate, 20 ug 293-MR lysate or 40 ug 293-PR lysate per well. Competing compounds are added at various concentrations ranging from about 0.01 nM to 10 μM. Non-specific binding is determined in the presence of 500 nM dexamethasone for GR binding, 500 nM aldosterone for MR binding, or 500 nM methyltrienolone for AR and PR binding. The binding reaction (140 μl) is incubated for overnight at 4° C., then 70 μl of cold charcoal-dextran buffer (containing per 50 ml of assay buffer, 0.75 g of charcoal and 0.25 g of dextran) is added to each reaction. Plates are mixed 8 minutes on an orbital shaker at 4° C. Plates are then centrifuged at 3,000 rpm at 4° C. for 10 minutes. An aliquot of 120 μl of the mix is transferred to another 96-well plate and 175 μl of Wallac Optiphase “Hisafe 3” scintillation fluid is added to each well. Plates are sealed and shaken vigorously on an orbital shaker. After an incubation of 2 hrs, plates are read in a Wallac Microbeta counter. The data is used to calculate an IC50 and % Inhibition at 10 μM. The Kd for ^3H-dexamethasone for GR binding, ^3H-methyltrienolone for AR binding, ^3H-aldosterone for MR binding, or ^3H-methyltrienolone for PR binding, is determined by saturation binding. The IC50 values for test compounds are converted to Ki using Cheng-Prusoff equation and the Kd determined by saturation binding assay.
Binding assay protocols for steroid hormone nuclear receptors similar to those described above can be readily designed by the ordinarily skilled artisan.

[2] = biological target: T2, human androgen receptor (AR) (Homo sapiens, UniProt P10275); assay: C2C12 AR/ARE reporter assay; type: cell-based; conditions: for EC50: mouse myoblast C2C12 cells, luciferase reporter, 48 h; for C2C12 % Efficacy: versus maximum stimulation obtained with 10 nM methyltrienolone
T2 construct: expressed in transfected cells; host or cells: mouse myoblast C2C12 cells, transiently co-transfected with FuGENE
T2 sequence (P10275 1-920): T1 sequence (P10275 1-920)
Method: As an indicator of agonist activity in muscle tissue, the C2C12 AR/ARE reporter assay is performed. Briefly, mouse myoblast C2C12 cells are co-transfected using FuGENE™. […] Cells are transfected in T150 cm^2 flasks in DMEM media with 4% or 10% Fetal Bovine Serum (FBS). After a 5 hour incubation, transfected cells are trypsinized, plated in 96 well dishes in DMEM media containing 10% charcoal-stripped FBS, incubated for 2 h and then exposed to various concentrations of test compounds ranging from about 0.01 nM to 10 μM. After 48 h of incubations with compounds, cells are lysed and luciferase activity is determined using standard techniques. Data is fit to a 4 parameter-fit logistics to determine EC50 values. The % efficacy is determined versus maximum stimulation obtained with 10 nM methyltrienolone. […]

[3] = AR binding Ki (nM), 293-AR cell lysate, 3H-methyltrienolone competition
[4] = C2C12, read-out: C2C12 % Efficacy, versus maximum stimulation obtained with 10 nM methyltrienolone, average

| Compound | Ki [1, 3] | Emax [2, 4] | EC50 ([2]; C2C12 EC50(nM), average) | C2C12 % Efficacy ([2]; average) | Ki [1] | Emax ([2]; C2C12, read-out: C2C12 % Efficacy) | EC50 ([2]; average, read-out: C2C12 EC50) |
| --- | --- | --- | --- | --- | --- | --- | --- |
| CCC1CCC(c2ccccc2)N1c1ccc(C#N)c(Cl)c1 (mixture of isomers) [Example 22, 2-Chloro-4-(2-ethyl-5-phenyl-pyrrolidin-1-yl)-benzonitrile] | 4.9 nM | 85.5% | 17.7 nM |  |  |  |  |
| CCC1CCC(c2ccccc2)N1c1ccc(C#N)c(Cl)c1C (mixture of isomers) [Example 23, 2-Chloro-4-(2-ethyl-5-phenyl-pyrrolidin-1-yl)-3-methyl-benzonitrile] | 27.1 nM | 70.1% | 131 nM |  |  |  |  |
| CCC1CCC(c2ccccc2)N1c1ccc(C#N)c(Cl)c1 (single isomer, unassigned) [Example 22a, 2-Chloro-4-(2-ethyl-5-phenyl-pyrrolidin-1-yl)-benzonitrile] | 122 nM |  | 32.4 nM | 92.4% |  |  |  |
| CCC1CCC(c2ccccc2)N1c1ccc(C#N)c(Cl)c1 (single isomer, unassigned) [Example 22b, 2-Chloro-4-(2-ethyl-5-phenyl-pyrrolidin-1-yl)-benzonitrile] | 39.9 nM |  | 25 nM | 80.6% |  |  |  |
| CCC1CCC(c2ccccc2)N1c1ccc(C#N)c(Cl)c1 (single isomer, unassigned) [Example 22c, 2-Chloro-4-(2-ethyl-5-phenyl-pyrrolidin-1-yl)-benzonitrile] | 39.8 nM |  | 135 nM | 61.3% |  |  |  |
| CCC1CCC(c2ccccc2)N1c1ccc(C#N)c(Cl)c1 (single isomer, unassigned) [Example 22d, 2-Chloro-4-(2-ethyl-5-phenyl-pyrrolidin-1-yl)-benzonitrile] | 2.2 nM |  | 6.1 nM | 66.5% |  |  |  |
| Cc1c(N2CCCC2c2ccccc2)ccc(C#N)c1Cl (stereo not drawn) [Example 1, 2-Chloro-3-methyl-4-(2-phenyl-pyrrolidin-1-yl)-benzonitrile] | 1.4 nM | 67.6% | 1.2 nM |  |  |  |  |
| Cc1c(N2CCCC2c2ccc(Cl)cc2)ccc(C#N)c1Cl (stereo not drawn) [Example 2] | 4.3 nM | 61% | 36.7 nM |  |  |  |  |
| Cc1c(N2CCCC2c2ccc(F)cc2)ccc(C#N)c1Cl (stereo not drawn) [Example 3] | 2.7 nM | 51.1% | 5.1 nM |  |  |  |  |
| Cc1c(N2CC(C)(C)CC2c2ccccc2)ccc(C#N)c1Cl (stereo not drawn) [Example 4] | 6.6 nM | 84.9% | 11.2 nM |  |  |  |  |
| COc1cccc(C2CCCN2c2ccc(C#N)c(Cl)c2C)c1 (stereo not drawn) [Example 5] | 1.1 nM | 102% | 0.9 nM |  |  |  |  |
| COc1ccccc1C1CCCN1c1ccc(C#N)c(Cl)c1C (stereo not drawn) [Example 6] | 7 nM | 81.7% | 177 nM |  |  |  |  |
| COc1ccc(C2CCCN2c2ccc(C#N)c(Cl)c2C)cc1 (stereo not drawn) [Example 7] | 3.4 nM | 68.9% | 28.3 nM |  |  |  |  |
| Cc1c(N2CCCC2c2ccccc2C(F)(F)F)ccc(C#N)c1Cl (stereo not drawn) [Example 8] | 72.9 nM | -38.5% |  |  |  |  |  |
| Cc1c(N2CCCC2c2ccccn2)ccc(C#N)c1Cl (stereo not drawn) [Example 10] | 4.7 nM | 79.8% | 40.8 nM |  |  |  |  |
| Cc1c(N2CCCC2c2ccncc2)ccc(C#N)c1Cl (stereo not drawn) [Example 11] | 6 nM | 76.8% | 6.8 nM |  |  |  |  |
| CSc1cccc(C2CCCN2c2ccc(C#N)c(Cl)c2C)c1 (stereo not drawn) [Example 13] | 5.8 nM | 84.7% | 9.7 nM |  |  |  |  |
| CSc1ccc(C2CCCN2c2ccc(C#N)c(Cl)c2C)cc1 (stereo not drawn) [Example 14] | 13.4 nM | 73.1% | 21.2 nM |  |  |  |  |
| Cc1c(N2CCCC2c2cncnc2)ccc(C#N)c1Cl (stereo not drawn) [Example 15] | 2.8 nM | 85.1% | 0.4 nM |  |  |  |  |
| N#Cc1ccc(N2CCCC2c2cccnc2)cc1Cl (stereo not drawn) [Example 16] | 17.4 nM | 42.6% | 109 nM |  |  |  |  |
| CC1(c2ccc3c(c2)OCO3)CCCN1c1ccc(C#N)c(Cl)c1 (stereo not drawn) [Example 17] | 27.3 nM | 13.2% |  |  |  |  |  |
| COc1cccc(C2(C)CCCN2c2ccc(C#N)c(Cl)c2)c1 (stereo not drawn) [Example 18] | 24.4 nM | 77.9% | 9.8 nM |  |  |  |  |
| N#Cc1ccc(N2CCCC2c2ccc3c(c2)OCO3)cc1C(F)(F)F (stereo not drawn) [Example 19] | 17.6 nM | -12.4% |  |  |  |  |  |
| CC1(c2ccc3c(c2)OCO3)CCCN1c1ccc(C#N)c(C(F)(F)F)c1 (stereo not drawn) [Example 20] |  |  |  |  | 21.1 nM | 4.8% | 516 nM |
| Cc1c(N2CCCC2c2cccc(S(C)(=O)=O)c2)ccc(C#N)c1Cl (stereo not drawn) [Example 21, 2-Chloro-4-[2-(3-methanesulfonyl-phenyl)-pyrrolidin-1-yl]-3-methyl-benzonitrile] | 3 nM | 58.1% | 103 nM |  |  |  |  |
| CC1(C)CC(c2ccc3c(c2)OCO3)N(c2ccc(C#N)c(Cl)c2)C1 (stereo not drawn) [Example 24, 4-[2-(1,3-benzodioxol-5-yl)-4,4-dimethylpyrrolidin-1-yl]-2-chlorobenzonitrile] | 12.7 nM | 23.4% | 397 nM |  |  |  |  |
| Cc1nnc(C2CCCN2c2ccc(C#N)c(Cl)c2C)o1 (stereo not drawn) [Example 25, 2-chloro-3-methyl-4-[2-(5-methyl-1,3,4-oxadiazol-2-yl)pyrrolidin-1-yl]benzonitrile] | 3.7 nM | 80.5% | 0.9 nM |  |  |  |  |
| Cc1c(N2CCCC2c2nnco2)ccc(C#N)c1Cl (stereo not drawn) [Example 26, 2-chloro-3-methyl-4-[2-(1,3,4-oxadiazol-2-yl)-1-pyrrolidinyl]benzonitrile] | 5.4 nM | 82.7% | 4.2 nM |  |  |  |  |
| Cc1noc(C2CCCN2c2ccc(C#N)c(Cl)c2C)n1 (stereo not drawn) [Example 27, 2-chloro-3-methyl-4-[2-(3-methyl-1,2,4-oxadiazol-5-yl)pyrrolidin-1-yl]benzonitrile] | 1.9 nM | 87.6% | 0.5 nM |  |  |  |  |
| Cc1nnc(C2CCCN2c2ccc(C#N)c(Cl)c2C)s1 (stereo not drawn) [Example 28, 2-chloro-3-methyl-4-[2-(5-methyl-1,3,4-thiadiazol-2-yl)pyrrolidin-1-yl]benzonitrile] | 9 nM | 74.3% | 24.4 nM |  |  |  |  |
